Marks after values point to notes of the source that are not given here.
Legend:
BRD4 (BDI_K57-E168) = molecular target: T1, BRD4 (BDI_K57-E168) (Homo sapiens, UniProt O60885); assay: TR-FRET bromodomain binding assay, BRD4 first bromodomain; conditions: His-tagged BD1, 100 nM Alexa647 probe; Ki calculated from IC50; dilution protocol A-G
T1 construct: BD1: amino acids K57-E168; made in house
Summary of the method: (§1)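 His-tagged BRD4 BD1 (K57-E168) or BD2 (8 nM) with Eu-anti-His antibody and Alexa647-labeled BET-inhibitor probe (100 nM for BDI, 30 nM for BDII), pH 6.0 phosphate buffer, 2% DMSO, 1 h at room temperature. TR-FRET (Ex 340, Em 495/520); IC50 by 4-parameter fit, converted to Ki using probe Kd and concentration.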

BRD4 (BDII_E352-M457) = molecular target: T2, BRD4 (BDII_E352-M457) (Homo sapiens, UniProt O60885); assay: TR-FRET bromodomain binding assay, BRD4 second bromodomain
T2 construct: made in house
Summary of the method: as §1

[1] = test system: breast cancer cell line MX-1; assay: MX-1 cell line proliferation assay (3-day, Cell Titer Glo); type: cell-based; conditions: Homo sapiens, MX1, MX-1 cells, 72 h, top concentration 3 μM, read-out: Cellular proliferation: EC50
Summary of the method: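 MX-1 cells, 5000/well in RPMI 1640 with 10% FBS, adhered overnight, then treated 3 days with compound at final 3 to 0.0001 μM (3-fold steps). Cell Titer Glo luminescence normalized to DMSO-treated cells; EC50 from sigmoidal fit.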

[2] = test system: LPS induced IL-6 production; assay: LPS (lipopolysaccharide) induced IL-6 production mouse assay; type: in vivo; conditions: 3 mg/kg oral, 1 h before LPS 2.5 mg/kg i.p.; serum IL-6 2 h after LPS; SCID female mice; all p<0.05
Description: Compounds of the Examples listed in Table 2 were assayed for their ability to inhibit LPS (lipopolysaccharide) induced IL-6 (Interleukin-6) production in mice. Fox Chase SCID® female mice (Charles Rivers Labs, 5 per group) received an intraperitoneal challenge of lipopolysaccharide (2.5 mg/kg, L2630 E. coli 0111:B4) one hour after oral administration of compounds. Mice were euthanized 2 hours after lipopolysaccharide injection, blood was removed by cardiac puncture, and then the serum harvested from the blood samples was frozen at −80° C. On the day of the assay the serum samples were brought to room temperature and then diluted 1:20 in phosphate-buffered saline containing 2% bovine serum albumin. Interleukin-6 measurements were performed using a cytokine assay from Meso Scale Discovery (Gaithersburg, Md.) for mouse serum analysis according to the manufacturer's protocol and read on a SECTOR Imager 6000 (Meso Scale Discovery, Gaithersburg, Md.) instrument. Statistical analysis was performed using Prism software (version 5.0) incorporating Dunnett's one way ANOVA. The IL-6 mean and standard deviation of the group of vehicle treated animals were compared with the IL-6 mean and standard deviation of the group treated with drug. A p value<0.05 means that there is less than a 5% probability that the mean values in the two groups are equal.
Xenograft Tumor Growth Inhibition Assay

[3] = test system: OPM-2 human multiple myeloma xenograft tumors; assay: OPM-2 xenograft tumor growth inhibition assay; type: in vivo, mice; conditions: QDx21; for % TGI: SCID-beige mice; for % TGD (tumor growth delay): endpoint 1000 mm^3
Description: The effect of compounds of the examples to inhibit the growth of OPM-2 xenograft tumors implanted in mice was evaluated. A suspension of cancer cells (5×10^6 per 0.1 mL) prepared in RPMI culture medium (Invitrogen, Carlsbad, Calif.) was diluted 1:1 with a solution of Matrigel™ (BD Biosciences, Franklin Lakes, N.J.) and inoculated subcutaneously into the right hind flank of female SCID-beige (Charles River Labs) mice. Randomization into treatment and vehicle control groups (10/group) occurred when the mean tumor volume reached approximately 250 mm^3. Compounds were formulated in 2.5% DMSO, 10% EtOH, 27.5% PEG 400, 60% Phosol 53 MCT. Administration of compound or vehicle was initiated on the day following randomization and continued for 21 days. Tumors were measured twice a week throughout the treatment period using a pair of calipers and tumor volumes were calculated according to the formula V=L×W^2/2 (V: volume, mm^3; L: length, mm. W: width, mm) Tumor growth inhibition was calculated based on the mean tumor volume measured on the first day that the mean volume of the vehicle group exceeded 2000 mm^3 according to the formula % TGI=100-mean tumor volume of treatment group/mean tumor volume of control group x 100.

SMILES	Ki (BRD4 (BDI_K57-E168)) [nM]	Ki (BRD4 (BDII_E352-M457)) [nM]	EC50 [1] [nM]	% inhibition of LPS induced IL-6 production at 3 mg/kg [2] [%]	% removed from study (morbidity or weight loss in excess of 20%) ([3]; 45 mg/kg PO) [%]	% TGI ([3]; 45 mg/kg PO)	% TGD (tumor growth delay) ([3]; 45 mg/kg PO)	% removed from study (morbidity or weight loss in excess of 20%) ([3]; 150 mg/kg PO) [%]	% TGI ([3]; 150 mg/kg PO)	% TGD (tumor growth delay) ([3]; 150 mg/kg PO)
COC(=O)c1cc2c(-c3cc(N)ccc3Oc3ccccc3)[nH]c(C)c2c(=O)[nH]1 [Example 2, methyl 1-(5-amino-2-phenoxyphenyl)-3-methyl-4-oxo-4,5-dihydro-2H-pyrrolo[3,4-c]pyridine-6-carboxylate]	1.47	21.5	24	25	–	–	–	–	–	–
COCCNC(=O)c1cc2c(-c3ccccc3Oc3ccccc3)[nH]c(C)c2c(=O)[nH]1 [Example 29, N-(2-methoxyethyl)-3-methyl-4-oxo-1-(2-phenoxyphenyl)-4,5-dihydro-2H-pyrrolo[3,4-c]pyridine-6-carboxamide]	10.6	46.7	114	40	–	–	–	–	–	–
CCCNC(=O)c1cc2c(-c3cc(N)ccc3Oc3ccc(F)cc3F)[nH]c(C)c2c(=O)[nH]1 [Example 43, 1-[5-amino-2-(2,4-difluorophenoxy)phenyl]-3-methyl-4-oxo-N-propyl-4,5-dihydro-2H-pyrrolo[3,4-c]pyridine-6-carboxamide]	15.9	25.4	150	39	–	–	–	–	–	–
Cc1[nH]c(-c2cc(NS(C)(=O)=O)ccc2Oc2ccc(F)cc2F)c2cn[nH]c(=O)c12 [Example 80, N-[4-(2,4-difluorophenoxy)-3-(7-methyl-1-oxo-2,6-dihydro-1H-pyrrolo[3,4-d]pyridazin-5-yl)phenyl]methanesulfonamide]	3.26	24.4	92.2	–	–	–	–	–	–	–
Cc1[nH]c(-c2cc(S(C)(=O)=O)ccc2Oc2ccc(F)cc2F)c2cn[nH]c(=O)c12 [Example 81, 5-[2-(2,4-difluorophenoxy)-5-(methylsulfonyl)phenyl]-7-methyl-2,6-dihydro-1H-pyrrolo[3,4-d]pyridazin-1-one]	22.7	254	394	–	–	–	–	–	–	–
Cc1[nH]c(-c2cc(C#N)ccc2Oc2ccc(F)cc2F)c2cn[nH]c(=O)c12 [Example 82, 4-(2,4-difluorophenoxy)-3-(7-methyl-1-oxo-2,6-dihydro-1H-pyrrolo[3,4-d]pyridazin-5-yl)benzonitrile]	36.7	357	167	44	–	–	–	–	–	–
Cc1cc(-c2ccc(-c3[nH]c(C)c4c(=O)[nH]ncc34)cc2)[nH]n1 [Example 83, 7-methyl-5-[4-(3-methyl-1H-pyrazol-5-yl)phenyl]-2,6-dihydro-1H-pyrrolo[3,4-d]pyridazin-1-one]	126	627	1720	–	–	–	–	–	–	–
CCS(=O)(=O)c1ccc(NCC2CC2)c(-c2[nH]c(C)c3c(=O)[nH]ncc23)c1 [Example 84, 5-{2-[(cyclopropylmethyl)amino]-5-(ethylsulfonyl)phenyl}-7-methyl-2,6-dihydro-1H-pyrrolo[3,4-d]pyridazin-1-one]	15.6	112	288	–	–	–	–	–	–	–
Cc1[nH]c(-c2ccccc2Oc2ccccc2)c2nc[nH]c(=O)c12 [Example 85, 5-methyl-7-(2-phenoxyphenyl)-3,6-dihydro-4H-pyrrolo[3,4-d]pyrimidin-4-one]	92.4	720	1240	–	–	–	–	–	–	–
CCOC(=O)c1nc2c(-c3ccccc3Oc3ccccc3)[nH]c(C)c2c(=O)[nH]1 [Example 87, ethyl 5-methyl-4-oxo-7-(2-phenoxyphenyl)-4,6-dihydro-3H-pyrrolo[3,4-d]pyrimidine-2-carboxylate]	82.3	1180	> 3000	–	–	–	–	–	–	–
Cc1[nH]c(-c2ccccc2Oc2ccccc2)c2nc(-c3ccco3)[nH]c(=O)c12 [Example 88, 2-(furan-2-yl)-5-methyl-7-(2-phenoxyphenyl)-3,6-dihydro-4H-pyrrolo[3,4-d]pyrimidin-4-one]	380	1620	761	–	–	–	–	–	–	–
Cc1nc2c(-c3ccccc3Oc3ccccc3)[nH]c(C)c2c(=O)[nH]1 [Example 89, 2,5-dimethyl-7-(2-phenoxyphenyl)-3,6-dihydro-4H-pyrrolo[3,4-d]pyrimidin-4-one]	212	497	963	–	–	–	–	–	–	–
Cc1[nH]c(-c2cc(N)ccc2Oc2ccccc2)c2c1C(=O)NCC2 [Example 94, 1-(5-amino-2-phenoxyphenyl)-3-methyl-2,5,6,7-tetrahydro-4H-pyrrolo[3,4-c]pyridin-4-one]	17.2	32.4	91.9	27	–	–	–	–	–	–
Cc1[nH]c(-c2cc(S(C)(=O)=O)ccc2OCC2CC2)c2c1C(=O)NCC2 [Example 96, 1-[2-(cyclopropylmethoxy)-5-(methylsulfonyl)phenyl]-3-methyl-2,5,6,7-tetrahydro-4H-pyrrolo[3,4-c]pyridin-4-one]	34.3	461	407	–	–	–	–	–	–	–
COC(=O)C1Cc2c(-c3ccccc3Oc3ccccc3)[nH]c(C)c2C(=O)N1 (centres unmarked) [Example 97, methyl 3-methyl-4-oxo-1-(2-phenoxyphenyl)-4,5,6,7-tetrahydro-2H-pyrrolo[3,4-c]pyridine-6-carboxylate]	24.3	157	> 3000	–	–	–	–	–	–	–
Cc1[nH]c(-c2cc(S(C)(=O)=O)ccc2Oc2ccc(F)cc2F)c2c1C(=O)NCC2 [Example 98, 1-[2-(2,4-difluorophenoxy)-5-(methylsulfonyl)phenyl]-3-methyl-2,5,6,7-tetrahydro-4H-pyrrolo[3,4-c]pyridin-4-one]	34.9	148	721	–	0	45** %	53** %	20	68*** %	123** %
Cc1[nH]c(-c2cc(N)ccc2Oc2ccc(F)cc2F)c2c1C(=O)NC(C)C2 (centres unmarked) [Example 101, 1-[5-amino-2-(2,4-difluorophenoxy)phenyl]-3,6-dimethyl-2,5,6,7-tetrahydro-4H-pyrrolo[3,4-c]pyridin-4-one]	8.42	11.5	45.8	–	–	–	–	–	–	–
Cc1[nH]c(-c2cc(CO)ccc2Oc2ccc(F)cc2F)c2c1C(=O)NCC2 [Example 103, 1-[2-(2,4-difluorophenoxy)-5-(hydroxymethyl)phenyl]-3-methyl-2,5,6,7-tetrahydro-4H-pyrrolo[3,4-c]pyridin-4-one]	122	198	239	–	–	–	–	–	–	–

Reference: patent US9050346B2, “Bromodomain inhibitors” (AbbVie Inc., priority 2013, dated 2015)
